The values that follow are results of earlier work, collected in patent publication US6335036B1, “Granular pharmaceutical preparation of ebselen” (Daiichi Pharmaceutical Co., Ltd., priority 1996, dated 2002).

For this data set the following is noted: known property, background art.

Take `O=c1c2ccccc2[se]n1-c1ccccc1` [Ebselen, 2-phenyl-1,2-benzisoselenazol-3(2H)-one]: the Solubility in water entry is “slightly soluble in water”.
